In patent EP4818168A1, “FUSED RING COMPOUND, PHARMACEUTICAL COMPOSITION THEREOF AND USE THEREOF” (priority 2023, dated 2025):

Target: T1, AURKA (Homo sapiens, UniProt O14965)
T1 construct: endogenous in cells; host or cells: Jurkat cells
T1 sequence (O14965 1-403): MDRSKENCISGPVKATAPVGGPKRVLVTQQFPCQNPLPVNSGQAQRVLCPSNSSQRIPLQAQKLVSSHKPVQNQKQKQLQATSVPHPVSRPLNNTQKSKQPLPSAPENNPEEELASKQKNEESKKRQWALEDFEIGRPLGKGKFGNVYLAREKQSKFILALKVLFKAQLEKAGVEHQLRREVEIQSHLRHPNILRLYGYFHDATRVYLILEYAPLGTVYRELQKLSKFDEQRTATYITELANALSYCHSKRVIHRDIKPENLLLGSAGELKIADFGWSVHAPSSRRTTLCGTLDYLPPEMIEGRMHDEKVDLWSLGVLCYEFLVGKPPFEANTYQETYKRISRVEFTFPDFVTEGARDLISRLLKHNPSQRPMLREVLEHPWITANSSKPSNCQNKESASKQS
Test: not given
Format: cell-based
Details: 100 nM compound, Jurkat cells, 24 h, Table 1
Procedure, shortened: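 AURKA degradation read by western blot: band signal, fluorescent or chemiluminescent, curve-fitted to derive DC50. Cells were Jurkat, plated at 1×10^6 cells/500 µL with compound, then lysed and blotted onto nitrocellulose, primary antibody overnight at 4°C.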

Row | Compound | Percentage of AURKA Degradation Induced by 100 nM Compound in Jurkat Cells
1 | O=C1CCN(c2ccc(N3CCC4(CC3)CC(NC(=O)c3ccc(Nc5ncc6c(n5)-c5ccc(Cl)cc5C(c5c(F)cccc5F)=NC6)cc3)C4)nc2)C(=O)N1 [Compound A55] | +++ (Degradation > 70%)
2 | O=C1CCN(c2ccc(N3CC4(CCC(NC(=O)c5ccc(Nc6ncc7c(n6)-c6ccc(Cl)cc6C(c6c(F)cccc6F)=NC7)cc5)CC4)C3)cc2)C(=O)N1 [Compound A56] | +++ (Degradation > 70%)
3 | COc1cc(Nc2ncc3c(n2)-c2ccc(Cl)cc2C(c2c(F)cccc2OC)=NC3)ccc1C(=O)NCCN1CCC(c2ccc(N3CCC(=O)NC3=O)cc2)CC1 [Compound A15] | +++ (Degradation > 70%)
4 | COc1cc(Nc2ncc3c(n2)-c2ccc(Cl)cc2C(c2c(F)cccc2OC)=NC3)ccc1C(=O)NC1CCC2(CC1)CN(c1ccc(N3CCC(=O)NC3=O)cc1)C2 [Compound A57] | +++ (Degradation > 70%)
5 | COc1cc(Nc2ncc3c(n2)-c2ccc(Cl)cc2C(c2c(F)cccc2OC)=NC3)ccc1C(=O)NC1CCN(Cc2ccc(N3CCC(=O)NC3=O)cc2)CC1 [Compound A28] | + (Degradation ≤ 30%)
6 | COc1cc(Nc2ncc3c(n2)-c2ccc(Cl)cc2C(c2c(F)cccc2OC)=NC3)ccc1C(=O)NC1CN(CCc2ccc(N3CCC(=O)NC3=O)cc2)C1 [Compound A48] | + (Degradation ≤ 30%)
7 | CN(CCN1CCN(c2ccc(N3CCC(=O)NC3=O)cc2)CC1)C(=O)c1ccc(Nc2ncc3c(n2)-c2ccc(Cl)cc2C(c2c(F)cccc2F)=NC3)cc1 [Compound A11] | +++ (Degradation > 70%)
8 | O=C1CCN(c2ccc(N3CC(CN4CC(NC(=O)c5ccc(Nc6ncc7c(n6)-c6ccc(Cl)cc6C(c6c(F)cccc6F)=NC7)cc5)C4)C3)cc2)C(=O)N1 [Compound A70] | +++ (Degradation > 70%)
9 | COc1cccc(F)c1C1=NCc2cnc(Nc3ccc(C(=O)NC4CC5(CCN(c6ccc(N7CCC(=O)NC7=O)cc6)CC5)C4)cc3)nc2-c2ccc(Cl)cc21 [Compound A46] | +++ (Degradation > 70%)
10 | COc1cccc(F)c1C1=NCc2cnc(Nc3ccc(C(=O)NCCN4CCN(c5ccc(N6CCC(=O)NC6=O)cn5)C5(CC5)C4)cc3)nc2-c2ccc(Cl)cc21 [Compound A67] | + (Degradation ≤ 30%)
11 | COc1cc(Nc2ncc3c(n2)-c2ccc(Cl)cc2C(c2c(F)cccc2OC)=NC3)ccc1C(=O)NC1CN(CCOc2cccc3c2C(=O)N(C2CCC(=O)NC2=O)C3=O)C1 (stereo not drawn) [Compound A5] | ++ (30% < Degradation ≤ 70%)
12 | O=C1CCN(c2ccc(N3CCN(CCNC(=O)c4ccc(Nc5ncc6c(n5)-c5ccc(Cl)cc5C(c5c(F)cccc5F)=NC6)cc4)CC3)cc2)C(=O)N1 [Compound A10] | ++ (30% < Degradation ≤ 70%)

Same assay, conditions: 1 µM compound, Jurkat cells, 24 h, Table 1

Row | Compound | Percentage of AURKA Degradation Induced by 1 µM Compound in Jurkat Cells
13 | O=C1CCN(c2ccc(N3CCC4(CC3)CC(NC(=O)c3ccc(Nc5ncc6c(n5)-c5ccc(Cl)cc5C(c5c(F)cccc5F)=NC6)cc3)C4)nc2)C(=O)N1 [Compound A55] | +++ (Degradation > 70%)
14 | O=C1CCN(c2ccc(N3CC4(CCC(NC(=O)c5ccc(Nc6ncc7c(n6)-c6ccc(Cl)cc6C(c6c(F)cccc6F)=NC7)cc5)CC4)C3)cc2)C(=O)N1 [Compound A56] | +++ (Degradation > 70%)
15 | COc1cc(Nc2ncc3c(n2)-c2ccc(Cl)cc2C(c2c(F)cccc2OC)=NC3)ccc1C(=O)NCCN1CCC(c2ccc(N3CCC(=O)NC3=O)cc2)CC1 [Compound A15] | +++ (Degradation > 70%)
16 | COc1cc(Nc2ncc3c(n2)-c2ccc(Cl)cc2C(c2c(F)cccc2OC)=NC3)ccc1C(=O)NC1CCC2(CC1)CN(c1ccc(N3CCC(=O)NC3=O)cc1)C2 [Compound A57] | +++ (Degradation > 70%)
17 | COc1cc(Nc2ncc3c(n2)-c2ccc(Cl)cc2C(c2c(F)cccc2OC)=NC3)ccc1C(=O)NC1CCN(Cc2ccc(N3CCC(=O)NC3=O)cc2)CC1 [Compound A28] | + (Degradation ≤ 30%)
18 | COc1cc(Nc2ncc3c(n2)-c2ccc(Cl)cc2C(c2c(F)cccc2OC)=NC3)ccc1C(=O)NC1CN(CCc2ccc(N3CCC(=O)NC3=O)cc2)C1 [Compound A48] | + (Degradation ≤ 30%)
19 | CN(CCN1CCN(c2ccc(N3CCC(=O)NC3=O)cc2)CC1)C(=O)c1ccc(Nc2ncc3c(n2)-c2ccc(Cl)cc2C(c2c(F)cccc2F)=NC3)cc1 [Compound A11] | ++ (30% < Degradation ≤ 70%)
20 | O=C1CCN(c2ccc(N3CC(CN4CC(NC(=O)c5ccc(Nc6ncc7c(n6)-c6ccc(Cl)cc6C(c6c(F)cccc6F)=NC7)cc5)C4)C3)cc2)C(=O)N1 [Compound A70] | +++ (Degradation > 70%)
21 | COc1cccc(F)c1C1=NCc2cnc(Nc3ccc(C(=O)NC4CC5(CCN(c6ccc(N7CCC(=O)NC7=O)cc6)CC5)C4)cc3)nc2-c2ccc(Cl)cc21 [Compound A46] | +++ (Degradation > 70%)
22 | COc1cccc(F)c1C1=NCc2cnc(Nc3ccc(C(=O)NCCN4CCN(c5ccc(N6CCC(=O)NC6=O)cn5)C5(CC5)C4)cc3)nc2-c2ccc(Cl)cc21 [Compound A67] | + (Degradation ≤ 30%)
23 | COc1cc(Nc2ncc3c(n2)-c2ccc(Cl)cc2C(c2c(F)cccc2OC)=NC3)ccc1C(=O)NC1CN(CCOc2cccc3c2C(=O)N(C2CCC(=O)NC2=O)C3=O)C1 (stereo not drawn) [Compound A5] | ++ (30% < Degradation ≤ 70%)
24 | O=C1CCN(c2ccc(N3CCN(CCNC(=O)c4ccc(Nc5ncc6c(n5)-c5ccc(Cl)cc5C(c5c(F)cccc5F)=NC6)cc4)CC3)cc2)C(=O)N1 [Compound A10] | ++ (30% < Degradation ≤ 70%)

System: HCC1806 cells
Test: CTG assay of compound inhibition on cell viability (HCC1806 cells)
Format: cell-based
Details: Homo sapiens, 144 h; HCC1806 cells, 6 days, CellTiter-Glo; read-out: IC50 in HCC1806 Cells
Description: CellTiter-Glo (CTG) is a rapid cell viability test method based on ATP detection. […] Adenosine triphosphate (ATP) participates in various enzymatic reactions in organisms and is an indicator of living cell metabolism. Its content directly reflects the number of living cells and cell status. During the experiment, equal volume of CTG reagent is added to the cultured cells to measure the luminescence value. The chemiluminescent signal value is proportional to the amount of ATP, thus reflecting the number of viable cells. Therefore, cell viability can be obtained by detecting the ATP content. Compounds that affect cell viability will inhibit cell viability in a concentration-dependent manner, allowing a curve to be fitted to obtain the IC50 value.
The experimental procedure is as follows: • 11. Place the cell suspension in a 15 mL centrifuge tube, centrifuge at 1000 rpm for 5 min at room temperature, discard the supernatant, and collect the cell pellet. • 12. Resuspend the cell pellet with preheated complete cell culture medium (RPMI1640+10%FBS+1%PS), and use a Countess® automated cell counter to detect cell viability and density. The cell viability must be above 90%. • 13. […] Transfer the compound solution to a 96-well plate seeded with cells (final concentration of DMSO 0.1%), and place in a cell incubator at 37°C, 5% CO2 for 6 days. • 15. […] Protect from light during the whole process. Perform optical signal readings using a SpectraMax i3x reader. • 16. Data analysis: Remaining activity (%) = 100% * (1 - ((LumDMSO - Lummedium) - Lumsample) / (LumDMSO - LumPBS/medium)). Use GraphPad Prism 9.0 software to draw an S-shaped dose-survival rate curve and calculate the IC50 value using a nonlinear regression model.

Row | Compound | IC50
25 | COc1cc(Nc2ncc3c(n2)-c2ccc(Cl)cc2C(c2c(F)cccc2OC)=NC3)ccc1C(=O)NC1CN(CCOc2cccc3c2C(=O)N(C2CCC(=O)NC2=O)C3=O)C1 (stereo not drawn) [Compound A5] | < 1 µM

Same assay, conditions: Homo sapiens, HCC1806, 144 h, read-out: IC50 in HCC1806 Cells

Row | Compound | IC50
26 | O=C1CCN(c2ccc(N3CCC4(CC3)CC(NC(=O)c3ccc(Nc5ncc6c(n5)-c5ccc(Cl)cc5C(c5c(F)cccc5F)=NC6)cc3)C4)nc2)C(=O)N1 [Compound A55] | < 1 µM
27 | O=C1CCN(c2ccc(N3CC4(CCC(NC(=O)c5ccc(Nc6ncc7c(n6)-c6ccc(Cl)cc6C(c6c(F)cccc6F)=NC7)cc5)CC4)C3)cc2)C(=O)N1 [Compound A56] | < 1 µM
28 | COc1cc(Nc2ncc3c(n2)-c2ccc(Cl)cc2C(c2c(F)cccc2OC)=NC3)ccc1C(=O)NCCN1CCC(c2ccc(N3CCC(=O)NC3=O)cc2)CC1 [Compound A15] | < 1 µM
29 | COc1cc(Nc2ncc3c(n2)-c2ccc(Cl)cc2C(c2c(F)cccc2OC)=NC3)ccc1C(=O)NC1CCC2(CC1)CN(c1ccc(N3CCC(=O)NC3=O)cc1)C2 [Compound A57] | < 1 µM
30 | COc1cc(Nc2ncc3c(n2)-c2ccc(Cl)cc2C(c2c(F)cccc2OC)=NC3)ccc1C(=O)NC1CCN(Cc2ccc(N3CCC(=O)NC3=O)cc2)CC1 [Compound A28] | < 1 µM
31 | COc1cc(Nc2ncc3c(n2)-c2ccc(Cl)cc2C(c2c(F)cccc2OC)=NC3)ccc1C(=O)NC1CN(CCc2ccc(N3CCC(=O)NC3=O)cc2)C1 [Compound A48] | < 1 µM
32 | CN(CCN1CCN(c2ccc(N3CCC(=O)NC3=O)cc2)CC1)C(=O)c1ccc(Nc2ncc3c(n2)-c2ccc(Cl)cc2C(c2c(F)cccc2F)=NC3)cc1 [Compound A11] | < 1 µM
33 | O=C1CCN(c2ccc(N3CC(CN4CC(NC(=O)c5ccc(Nc6ncc7c(n6)-c6ccc(Cl)cc6C(c6c(F)cccc6F)=NC7)cc5)C4)C3)cc2)C(=O)N1 [Compound A70] | < 1 µM
34 | COc1cccc(F)c1C1=NCc2cnc(Nc3ccc(C(=O)NC4CC5(CCN(c6ccc(N7CCC(=O)NC7=O)cc6)CC5)C4)cc3)nc2-c2ccc(Cl)cc21 [Compound A46] | < 1 µM
35 | COc1cccc(F)c1C1=NCc2cnc(Nc3ccc(C(=O)NCCN4CCN(c5ccc(N6CCC(=O)NC6=O)cn5)C5(CC5)C4)cc3)nc2-c2ccc(Cl)cc21 [Compound A67] | < 1 µM
36 | O=C1CCN(c2ccc(N3CCN(CCNC(=O)c4ccc(Nc5ncc6c(n5)-c5ccc(Cl)cc5C(c5c(F)cccc5F)=NC6)cc4)CC3)cc2)C(=O)N1 [Compound A10] | < 1 µM
